Usually EC50 stands for the concentration at which the effect is half-maximal. Higher therefore signals a need for much substance.

EC50 and ee % data for five molecules are collected here from US12172959B2, “Mono- or di-substituted indole derivatives as dengue viral replication inhibitors” (priority 2015, dated 2024).

The structures appear in SMILES notation.

Series [1] concerns DENV-2 strain NGC. In words: Tetravalent RT-qPCR assay Protocol B, serotype 2. The series is classed as cell-based. Conditions: Dengue virus, DENV2, 96 h, RT-qPCR serotype 2 NGC-Tongalike, 4 days. Here is the method:
The antiviral activity of the compounds of the invention was tested against DENV-1 strain Djibouti strain (D1/H/IMTSSA/98/606; Table 6), DENV-2 strain NGC (Table 7), DENV-3 strain H87 (Table 8) and DENV-4 strain SG/06K2270DK1/2005 (Table 9B) in a RT-qPCR assay. Vero-B or Vero-M cells (5×10^4) were seeded in 96-well plates. One day later, culture medium was replaced with 100 μL assay medium containing a 2×, 3× or 5× serial dilution of the compound (concentration range: 50 μg/mL-0.00038 μg/mL, 50 μg/mL-0.0076 μg/mL, and 50 μg/mL-0.00013 μg/mL, respectively) and 100 μL of dengue virus inoculum (DENV). Following a 2 hour incubation period, the cell monolayer was washed 3 times with assay medium to remove residual, non-adsorbed virus and cultures were further incubated for either 4 days (DENV-2 NGC) or 7 days (DENV-1 Djibouti strain D1/H/IMTSSA/98/606, DENV-3 strain H87 prototype, DENV-4 strain H241, and DENV-4 strain EDEN) in the presence of the inhibitor. Supernatant was harvested and viral RNA load was determined by real-time quantitative RT-PCR. The 50% effective concentration (EC50), which is defined as the compound concentration that is required to inhibit viral RNA replication by 50%, was determined using logarithmic interpolation.
RNA was isolated from 100 μL (or in some circumstances 150 μL) supernatant with the NucleoSpin 96 Virus kit (Filter Service, Duren, Germany) as described by the manufacturer. The sequences of the TaqMan primers (DENV-For, DENV-Rev; Table 5) and TaqMan probes (DENV-Probe Table 5) were selected from non-structural gene 3 (NS3) or NS5, of the respective flaviviruses using Primer Express software (version 2.0; Applied Biosystems, Lennik, Belgium). The TaqMan probe was fluorescently labelled with 6-carboxyfluorescein (FAM) at the 5′ end as the reporter dye, and with minor groove binder (MGB) at the 3′ end as the quencher (Table 5). One-step, quantitative RT-PCR was performed in a total volume of 25 μL, containing 13.9375 μL H2O, 6.25 μL master mix (Eurogentec, Seraing, Belgium), 0.375 μL forward primer, 0.375 μL reverse primer, 1 μL probe, 0.0625 μL reverse transcriptase (Eurogentec) and 3 μL sample. RT-PCR was performed using the ABI 7500 Fast Real-Time PCR System (Applied Biosystems, Branchburg, New Jersey, USA) using the following conditions: 30 min at 48° C. and 10 min at 95° C., followed by 40 cycles of 15 s at 95° C. and 1 min at 60° C. The data was analyzed using the ABI PRISM 7500 SDS software (version 1.3.1; Applied Biosystems). For absolute quantification, standard curves were generated using 10-fold dilutions of template preparations of known concentrations.
Background: Quantitative PCR measures a nucleic acid by following its amplification.

Series [2] in a line: Chiral stability at pH 7.4 (enantiomeric excess by Chiral SFC after incubation). It is filed as physicochemical. Conditions: 5 μM. How it is done: The chiral stability of Enantiomer 1A (R=OMe) was evaluated by determination of the enantiomeric excess (ee %) after incubation for 24 h and 48 h in a buffered solution at pH 7.4 at 40° C. and 60° C. To assess the influence of the methoxy-substituent of Enantiomer 1A (R=OMe) on the stability against racemization, the chiral stability of Enantiomer 1′A (R=H) was tested under the same conditions. To this end, 5 μM buffered (pH=7.4) solutions of 1A and 1′A were prepared by mixing 25 μL of a 100 μM solution of 1A or 1′A in DMSO with 475 μL aqueous buffer pH 7.4. Samples were taken 24 h and 48 h after incubation at 40° C. and 60° C. The analytical samples were analyzed by Chiral SFC (MS detection) and the chiral purity was expressed as the enantiomeric excess (ee %=% enantiomer A−% enantiomer B).

The molecule `COc1cc(NC(C(=O)c2c[nH]c3c(C)c(OC)ccc23)c2ccc(Cl)cc2OC)cc(S(C)(=O)=O)c1` (single isomer, unassigned) [Compound 6A, 2-(4-chloro-2-methoxyphenyl)-2-((3-methoxy-5-(methyl-sulfonyl)phenyl)amino)-1-(6-methoxy-7-methyl-1H-indol-3-yl)ethanone] registered a concentration for a half-maximal effect (EC50) in series [1] of less than 240 pM.
Turning to `COc1cc(NC(C(=O)c2c[nH]c3cc(F)ccc23)c2ccc(Cl)cc2OC)cc(S(C)(=O)=O)c1` (single isomer, unassigned) [Compound 1A, 2-(4-chloro-2-methoxyphenyl)-1-(6-fluoro-1H-indol-3-yl)-2-((3-methoxy-5-(methylsulfonyl)phenyl)amino)ethanone], the ee % in series [2] (buffered solution pH 7.4, 40° C., 24 h) is 100%; in series [2] (buffered solution pH 7.4, 40° C., 48 h), 100%; in series [2] (buffered solution pH 7.4, 60° C., 24 h), 95%; in series [2] (buffered solution pH 7.4, 60° C., 48 h), 88%. The same molecule had a 50% effective concentration (EC50) in series [1] of less than 270 pM.
On to `COc1cc(NC(C(=O)c2c[nH]c3cc(OC)c(C)cc23)c2ccc(Cl)cc2OC)cc(S(C)(=O)=O)c1` (single isomer, unassigned) [Compound 4A, 2-(4-chloro-2-methoxyphenyl)-2-((3-methoxy-5-(methyl-sulfonyl)phenyl)amino)-1-(6-methoxy-5-methyl-1H-indol-3-yl)ethanone], for which, in series [1], the EC50 came to 320 pM.
As to `COc1cc(NC(C(=O)c2c[nH]c3cc(OC)c(F)cc23)c2ccc(Cl)cc2OC)cc(S(C)(=O)=O)c1` (single isomer, unassigned) [Compound 5A, 2-(4-chloro-2-methoxyphenyl)-1-(5-fluoro-6-methoxy-1H-indol-3-yl)-2-((3-methoxy-5-(methylsulfonyl)phenyl)amino)ethanone], the EC50 in series [1] is less than 230 pM.
In the case of `COc1cc(NC(C(=O)c2c[nH]c3c(C)c(F)ccc23)c2ccc(Cl)cc2OC)cc(S(C)(=O)=O)c1` (single isomer, unassigned) [Compound 2A, 2-(4-chloro-2-methoxyphenyl)-1-(6-fluoro-7-methyl-1H-indol-3-yl)-2-((3-methoxy-5-(methylsulfonyl)phenyl)amino)ethanone], in series [1], the EC50 was less than 240 pM.
